Read-outs that look alike come from different tables or passages of the source.

By Ki is commonly meant a measure of affinity in units of concentration, obtained from inhibition or displacement.

For one assay, the target named is T1, MMP-13 (Homo sapiens, UniProt P45452).
T1 construct: made in house; host or cells: baculovirus / insect cells
In words: In vitro MMP inhibition, Ki determination (fluorogenic substrate II). The class given is biochemical. The method in brief:
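Ki determined with human recombinant MMP-13, baculovirus-expressed as proenzyme and activated with APMA. Fluorogenic MCA/Dpa substrate II at 4 μM (at or below Km) with low enzyme in Tris buffer pH 7.5 with CaCl2. Incubation was 1 h at room temperature, with fluorescence read at 330/420 nm.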

The next assay has as its target T2, MMP-2 (Homo sapiens, UniProt P08253).
T2 construct: made in house; host or cells: MMP-2-transfected p2AHT2 cells
T2 sequence (P08253 110-660): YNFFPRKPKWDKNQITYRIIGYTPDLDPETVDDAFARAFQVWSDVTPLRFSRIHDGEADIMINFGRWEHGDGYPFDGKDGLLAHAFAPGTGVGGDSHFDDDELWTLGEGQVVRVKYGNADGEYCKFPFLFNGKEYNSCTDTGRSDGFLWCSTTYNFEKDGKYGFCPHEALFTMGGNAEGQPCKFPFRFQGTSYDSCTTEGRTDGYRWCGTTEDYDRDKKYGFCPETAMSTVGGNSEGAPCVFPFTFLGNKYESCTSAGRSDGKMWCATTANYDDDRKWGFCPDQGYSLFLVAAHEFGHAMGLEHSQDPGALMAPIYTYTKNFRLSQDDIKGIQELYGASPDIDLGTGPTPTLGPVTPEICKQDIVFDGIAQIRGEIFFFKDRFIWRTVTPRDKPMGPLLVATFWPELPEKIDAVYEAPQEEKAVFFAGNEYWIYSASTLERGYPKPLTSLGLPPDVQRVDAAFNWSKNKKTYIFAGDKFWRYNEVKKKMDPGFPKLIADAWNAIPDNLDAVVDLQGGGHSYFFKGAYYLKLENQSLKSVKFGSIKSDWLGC
The description is as above. The class given is biochemical.

The mark [1] stands for this setting: human recombinant enzyme, 4 μM substrate II, room temperature, 1 hr, read-out: MMP-13 Ki.
[2] abbreviates: human recombinant enzyme, 4 μM substrate II, room temperature, 1 hr, read-out: MMP-2 Ki.
Where [3] appears, read: value not in parenthesis, read-out: MMP-13 Ki.
Setting [4] is: value not in parenthesis, read-out: MMP-2 Ki.
Setting [5] is: MMP-13 Ki, value not in parenthesis.
[6] abbreviates: MMP-2 Ki, value not in parenthesis.

With `CCCCCCCCC1CCN(S(=O)(=O)C2(C(=O)NO)CCOCC2)CC1` [Example 26, 4-(4-octyl-piperidine-1-sulfonyl)-tetrahydro-pyran-4-carboxylic Acid Hydroxyamide], the Ki on MMP-13 (setting [1]) was found to be 0.51 nM; at MMP-2 (setting [2]), 0.78 nM.
Consider `O=C(NO)C1(S(=O)(=O)N2CCC(c3cnc(OCC(F)(F)C(F)(F)F)cn3)CC2)CCOCC1` [Example 27], for which the figures for the Ki at MMP-13 (setting [1]) and at MMP-2 (setting [2]) were 0.5 nM and 0.59 nM, respectively.
`CCCCCc1cnc(N2CCN(S(=O)(=O)C3(C(=O)NO)CCOCC3)CC2)s1` [Example 56]: the Ki at MMP-13 (setting [3]) came out at 1.74 nM; at MMP-2 (setting [4]), 1.02 nM.
The matching figures for `O=C(NO)C1(S(=O)(=O)N2CCN(c3ccc(-c4ccc(Cl)cc4)cn3)CC2)CCOCC1` [Example 60]: 0.32 nM and 0.54 nM.
Turning to `O=C(NO)C1(S(=O)(=O)N2CCN(c3ccc(COCC(F)(F)C(F)(F)C(F)(F)C(F)F)cc3)CC2)CCOCC1` [Example 68], the values for the Ki at MMP-13 (setting [5]) and at MMP-2 (setting [6]) were 1.85 nM and 4.69 nM, respectively.
Consider `O=C(NO)C1(S(=O)(=O)N2CCN(c3ccc(COCC(F)(F)C(F)(F)C(F)(F)F)cc3)CC2)CCOCC1` [Example 69], for which the figures for the Ki at MMP-13 (setting [5]) and at MMP-2 (setting [6]) were 2.11 nM and 5.44 nM, respectively.
For the compound `C=CCCOC(=O)N1CCC(C(=O)NO)(S(=O)(=O)N2CCN(c3ccc(OCCCC)cc3)CC2)CC1` [Example 101], the Ki on MMP-13 (setting [3]) was 0.92 nM; at MMP-2 (setting [4]), 1.64 nM.
The matching figures for `COCCN1CCC(C(=O)NO)(S(=O)(=O)N2CCN(c3ccc(OCCCC(F)(F)F)cc3F)CC2)CC1` [Example 102]: 0.19 nM and 1.25 nM.
The matching figures for `O=C(NO)C1(S(=O)(=O)N2CCN(c3ncc(Br)cn3)CC2)CCOCC1` [Example 103]: 3.48 nM and 3.44 nM.
Taken in the same sequence, the figures for `O=C(NO)C1(S(=O)(=O)N2CCN(c3ncc(Br)cn3)CC2)CCOCC1` [Example 104] were 3.55 nM and 4.73 nM.
As for `O=C(NO)C1(S(=O)(=O)N2CCN(c3ncccn3)CC2)CCOCC1` [Example 106], the Ki at MMP-13 (setting [3]) was found to be 27.2 nM; on MMP-2 (setting [4]) it was 134 nM.
Turning to `O=C(NO)C1(S(=O)(=O)N2CCN(c3ncccn3)CC2)CCOCC1` [Example 107], the figures for the Ki at MMP-13 (setting [3]) and at MMP-2 (setting [4]) were 22.4 nM and 115 nM, respectively.
Turning to `COc1ccc(N2CCN(S(=O)(=O)C3(C(=O)NO)CCOCC3)CC2)nc1` [Example 108], the Ki stood at 478 nM at MMP-13 (setting [3]) and 431 nM on MMP-2 (setting [4]).
`COc1ccc(N2CCN(S(=O)(=O)C3(C(=O)NO)CCOCC3)CC2)nc1` [Example 109]: the figures for the Ki on MMP-13 (setting [3]) and on MMP-2 (setting [4]) were 472 nM and 477 nM, respectively.
As for `CCCCCCCCCc1cnc(N2CCN(S(=O)(=O)C3(C(=O)NO)CCOCC3)CC2)nc1` [Example 110], the Ki on MMP-13 (setting [3]) is 3.23 nM; on MMP-2 (setting [4]), 61.7 nM.
As for `CCCCCCCCCc1cnc(N2CCN(S(=O)(=O)C3(C(=O)NO)CCOCC3)CC2)nc1` [Example 111], the figures for the Ki on MMP-13 (setting [3]) and at MMP-2 (setting [4]) were 2.58 nM and 49.6 nM, respectively.
As to `O=C(NO)C1(S(=O)(=O)N2CCN(c3ccc(OCCCC(F)(F)F)cc3)CC2)CCN(c2cnccn2)CC1` [Example 112], the Ki on MMP-13 (setting [3]) was 0.27 nM; at MMP-2 (setting [4]), 0.69 nM.
The matching figures for `CCCCOc1ccc(N2CCN(S(=O)(=O)C3(C(=O)NO)CCN(C(=O)OCCF)CC3)CC2)cc1` [Example 113]: 0.25 nM and 0.4 nM.
Turning to `CCc1ccc(N2CCN(S(=O)(=O)C3(C(=O)NO)CCOCC3)CC2)nc1` [Example 114], the results for the Ki on MMP-13 (setting [3]) and on MMP-2 (setting [4]) were 0.748 nM and 0.367 nM, respectively.
As for `CCCCOc1ccc(N2CCN(S(=O)(=O)C3(C(=O)NO)CCN(C(=O)OCC(F)(F)F)CC3)CC2)cc1` [Example 115], the results for the Ki on MMP-13 (setting [3]) and on MMP-2 (setting [4]) were 1.17 nM and 1.48 nM, respectively.
With `CC(C)(C)N1CCC(C(=O)NO)(S(=O)(=O)N2CCN(c3ccc(OCCCC(F)(F)F)cc3F)CC2)CC1` [Example 116], the Ki at MMP-13 (setting [3]) was determined as 1.21 nM; at MMP-2 (setting [4]) it was 4.31 nM.
Regarding `CCCCOc1ccc(N2CCN(S(=O)(=O)C3(C(=O)NO)CCN(C(=O)NCCOC)CC3)CC2)cc1` [Example 118], the Ki came out at 0.43 nM at MMP-13 (setting [3]) and 0.75 nM on MMP-2 (setting [4]).
